Where only a bound is given, the exact number is not on record here.

As usually defined, the EC50 is the midpoint of the concentration-response curve. For orientation: AC50 means the midpoint of the concentration-response curve, whichever way the signal moves.

The target in assay [1] is T1, APOL1 G2 (Homo sapiens, UniProt O14791, DEL388-389).
T1 construct: expressed in transfected cells; host or cells: HEK293 T-REx clonal lines: HEK T-REx/GCaMP6f/APOL1 G2 K6.3 in A1, HEK293/T-REx APOL1 G2/clone #2 in A2
T1 sequence (O14791 with tags, fused parts or gaps DEL388-389): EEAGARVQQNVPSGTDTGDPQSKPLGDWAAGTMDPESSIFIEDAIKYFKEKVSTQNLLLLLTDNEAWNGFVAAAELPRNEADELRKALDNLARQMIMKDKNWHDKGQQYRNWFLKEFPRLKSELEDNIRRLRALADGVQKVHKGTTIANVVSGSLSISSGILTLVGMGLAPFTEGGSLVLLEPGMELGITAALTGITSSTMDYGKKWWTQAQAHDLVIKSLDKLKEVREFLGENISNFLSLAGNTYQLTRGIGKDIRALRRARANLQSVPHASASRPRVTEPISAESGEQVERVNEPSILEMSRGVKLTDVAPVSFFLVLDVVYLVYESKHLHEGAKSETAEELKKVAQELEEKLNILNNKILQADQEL
The assay is described as follows: Rescue of HEK293 cell death caused by overexpression of APOL1 (CellTiter-Glo luminescence), HEK293/T-REx APOL1 G2/clone #2. Format: cell-based. The conditions noted are these: reversal of cell death caused by overexpression of APOL1; geometric mean of at least 2 assay runs, † = single assay run (technical duplicate). An outline of the steps:
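Rescue EC50s come from four-parameter logistic fits, geometric mean of at least 2 runs on separate days, each in duplicate. Readout: CellTiter-Glo luminescence after 17 h at 37 °C of 5,000 HEK293/T-REx APOL1 G2 clone #2 cells/well, with 6 ng/mL doxycycline to induce APOL1 and 3-fold serial compound dilutions in 0.5% DMSO.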
A general note: ATP-based viability assays read luminescence as a measure of living cells.

Assay [2] addresses T1, APOL1 G2. Put plainly: APOL1 calcium transport inhibition assay (GCaMP6f calcium influx, FLIPR) in HEK T-REx/GCaMP6f/APOL1 G2 K6.3 cells. Format: cell-based. As to conditions: inhibition of APOL1-mediated calcium influx; geometric mean of at least 2 assay runs, † = single assay run (technical duplicate). An outline of the steps:
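HEK293 cells stably expressing GCaMP6f, APOL1 G2 induced 6 h with doxycycline (20 ng/mL added), then washed into Ca2+-free Tyrode's buffer pH 7.4. Compounds (8-point dose response) preincubated 10 min at room temperature, then Ca2+ injected to 5 mM final and influx read on FLIPR. AC50 reported as geometric mean of runs.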

For `CC(CN1C[C@@H](COc2ccc(S(C)(=O)=O)cc2)C[C@H]1C)c1cc(Cl)cc(C#N)c1` (single isomer, unassigned) [Compound 143, 3-chloro-5-[(2S or 2R)-1-[(2R, 4S)-4-[(4-meth-anesulfonyl-phenoxy)meth-yl]-2-methyl-pyrrolidin-1-yl]-propan-2-yl]-benzonitrile], the EC50 on APOL1 G2 [1] came to 349 nM. On APOL1 G2 [2], the AC50 was determined as 3160 nM.

As for `CC(CN1C[C@@H](COc2ccc(S(C)(=O)=O)cc2)[C@H](C)C1)c1cc(Cl)cc(C#N)c1` (single isomer, unassigned) [Compound 147, 3-chloro-5-[(2R or 2S)-1-[(3S, 4S)-3-[(4-meth-anesulfonylphen-oxy)methyl]-4-methylpyrroli-din-1-yl]propan-2-yl]benzonitrile], the EC50 on APOL1 G2 [1] amounted to 618 nM. Further, the AC50 on APOL1 G2 [2] came to 1110 nM.

As for `CC(CN1C[C@@H](COc2ccc(S(C)(=O)=O)cc2)[C@H](C)C1)c1cc(Cl)cc(C#N)c1` (single isomer, unassigned) [Compound 148, 3-chloro-5-[(2S or 2R)-1-[(3S, 4S)-3-[(4-meth-anesulfonylphen-oxy)methyl]-4-methylpyrroli-din-1-yl]propan-2-yl]benzonitrile], the EC50 at APOL1 G2 [1] was determined as 80.8 nM. For the same molecule, at APOL1 G2 [2], the AC50 amounted to 615 nM.

Take `C[C@@H]1CN(CCc2cccc(Cl)c2)C[C@@H]1COc1ccc(S(C)(=O)=O)cc1` (single isomer, unassigned) [Compound 151, (3R,4S or 3S, 4R)-1-[2-(3-chlorophenyl)-ethyl]-3-[(4-methanesulfon-ylphenoxy)meth-yl]-4-methyl-pyrrolidine]: the EC50 at APOL1 G2 [1] was found to be 1340 nM. For the same molecule, the AC50 at APOL1 G2 [2] was determined as 310 nM.

As for `C[C@H]1CN(CCc2cccc(Cl)c2)C[C@H]1COc1ccc(S(C)(=O)=O)cc1` (single isomer, unassigned) [Compound 152, (3S,4R or 3R, 4S)-1-[2-(3-chlorophenyl)-ethyl]-3-[(4-methanesulfon-ylphenoxy)meth-yl]-4-methyl-pyrrolidine], the EC50 at APOL1 G2 [1] was 4720 nM. Further, the AC50 on APOL1 G2 [2] amounted to 1990 nM.

As for `C[C@H]1CN(CCc2cccc(Cl)c2)C[C@@H]1COc1ccc(S(C)(=O)=O)cc1` (single isomer, unassigned) [Compound 154, (3R,4R or 3S, 4S)-1-[2-(3-chlorophenyl)-ethyl]-3-[(4-methanesulfon-ylphenoxy)meth-yl]-4-methyl-pyrrolidine], the concentration giving a half-maximal response (EC50) at APOL1 G2 [1] was 167 nM. The AC50 at APOL1 G2 [2] stood at 98 nM.

As to `C[C@@H]1CN(CCc2cccc(Cl)c2)C[C@H]1COc1ccc(S(C)(=O)=O)cc1` (single isomer, unassigned) [Compound 155, (35,4S or 3R, 4R)-1-[2-(3-chlorophenyl)-ethyl]-3-[(4-methanesulfon-ylphenoxy)meth-yl]-4-methyl-pyrrolidine], the EC50 on APOL1 G2 [1] is 2490 nM. At APOL1 G2 [2], the AC50 was found to be 1980 nM.

With `CN=S(C)(=O)c1ccc(OC[C@H]2C[C@@H](C)N(CCc3cccc(C#N)c3)C2)cc1` (single isomer, unassigned) [Compound 158, 3-{2-[(2R,4S)-2-methyl-4-({4-[(R or S)methyl(methyli-mino)oxo-λ^6-sulfanyl]phenoxy}methyl)pyrrolidin-1-yl]ethyl}benzonitrile], the EC50 on APOL1 G2 [1] is 39 nM. On APOL1 G2 [2], the AC50 is 352 nM.

`CN=S(C)(=O)c1ccc(OC[C@H]2C[C@@H](C)N(CCc3cccc(C#N)c3)C2)cc1` (single isomer, unassigned) [Compound 159, 3-{2-[(2R,4S)-2-methyl-4-({4-[(S or R)methyl(methyli-mino)oxo-λ^6-sulfanyl]phenoxy}methyl)pyrrolidin-1-yl]ethyl}benzonitrile]: the half-maximal effective concentration (EC50) on APOL1 G2 [1] is 24.9 nM. The AC50 at APOL1 G2 [2] came to 358 nM.

On to `CN=S(C)(=O)c1ccc(OC[C@@H]2CN(CCc3cccc(C#N)c3)C[C@H]2C)cc1` (single isomer, unassigned) [Compound 170, 3-{2-[(3S,4S)-3-methyl-4-({4-[(R or S)-methyl(methylimi-no)oxo-λ^6-sulfanyl]phenoxy}methyl)pyrrolidin-1-yl]ethyl}benzonitrile], for which the EC50 at APOL1 G2 [1] was 76 nM. The AC50 on APOL1 G2 [2] turned out to be 37.5 nM.

For the molecule `CN=S(C)(=O)c1ccc(OC[C@@H]2CN(CCc3cccc(C#N)c3)C[C@H]2C)cc1` (single isomer, unassigned) [Compound 171, 3-{2-[(3S,4S)-3-methyl-4-({4-[(S or R)-methyl(methylimi-no)oxo-λ^6-sulfanyl]phenoxy}methyl)pyrrolidin-1-yl]ethyl}benzonitrile], on APOL1 G2 [1], the EC50 was 146 nM. Besides, the AC50 on APOL1 G2 [2] amounted to 212 nM.

`C[C@H]1CN(CCc2cccc(Cl)c2)C[C@@H]1COc1ccc(S(=O)(=O)CCCS(C)(=O)=O)cc1` (single isomer, unassigned) [Compound 176, (3R,4R or 3S,4S)-1-[2-(3-chlorophenyl)eth-yl]-3-{[4-(3-methanesulfonylpro-panesulfonyl)phe-noxy]methyl}-4-methylpyrrolidine]: on APOL1 G2 [1], the EC50 was under 47.2 nM. Besides, the AC50 on APOL1 G2 [2] is 63 nM.

Consider `C[C@@H]1CN(CCc2cccc(Cl)c2)C[C@H]1COc1ccc(S(=O)(=O)CCCS(C)(=O)=O)cc1` (single isomer, unassigned) [Compound 177, (3S,4S or 3R,4R)-1-[2-(3-chlorophenyl)eth-yl]-3-{[4-(3-methanesulfonylpro-panesulfonyl)phe-noxy]methyl}-4-methylpyrrolidine], for which, at APOL1 G2 [1], the EC50 is 1830 nM. Also, the AC50 at APOL1 G2 [2] came out at 2860 nM.

As to `CN=S(C)(=O)c1ccc(OC[C@@H]2CN(CCc3cc(Cl)cc(C#N)c3)CCN2)cc1` (single isomer, unassigned) [Compound 187, 3-chloro-5-{2-[(3S)-3-({4-[(S or R)-methyl(methyl-imino)oxo-λ^6-sulfanyl]pheno-xy}methyl)pipera-zin-1-yl]ethyl}benzo-nitrile], the EC50 at APOL1 G2 [1] was found to be 436 nM. In addition, the AC50 on APOL1 G2 [2] was found to be 198 nM.

In the case of `CN=S(C)(=O)c1ccc(OC[C@@H]2CN(CCc3cc(Cl)cc(C#N)c3)CCN2)cc1` (single isomer, unassigned) [Compound 188, 3-chloro-5-{2-[(3S)-3-({4-[(R or S)-methyl(methyl-imino)oxo-λ^6-sulfanyl]pheno-xy}methyl)piper-azin-1-yl]ethyl}benzo-nitrile], the EC50 on APOL1 G2 [1] came to 303 nM. Moreover, the AC50 on APOL1 G2 [2] amounted to 511 nM.

In the case of `CC1CC(COc2ccc(S(C)(=O)=O)cc2)CN1CCc1cc(Cl)cc(C#N)c1` (single isomer, unassigned) [Compound 199, rac-cis or trans-3-chloro-5-{2-[4-[(4-methanesulfonylphenoxy)methyl]-2-methylpyrrolidin-1-yl]ethyl}benzonitrile], on APOL1 G2 [1], the EC50 is 2440 nM. The AC50 on APOL1 G2 [2] was 817 nM.

Turning to `CC1CC(COc2ccc(S(C)(=O)=O)cc2)CN1CCc1cc(Cl)cc(C#N)c1` (single isomer, unassigned) [Compound 200, 3-chloro-5-(2-((2S,4R or 2R,4S or 2R,4R or 2S,4S)-2-methyl-4-((4-(methylsulfonyl)phenoxy)methyl)pyrrolidin-1-yl)ethyl)benzonitrile], the EC50 at APOL1 G2 [1] was 1990 nM. Also, the AC50 on APOL1 G2 [2] is 836 nM.

In the case of `CC1CC(COc2ccc(S(C)(=O)=O)cc2)CN1CCc1cc(Cl)cc(C#N)c1` (single isomer, unassigned) [Compound 201, 3-chloro-5-(2-((2R,4S or 2S,4R or 2R,4R or 2S,4S)-2-methyl-4-((4-(methylsulfonyl)phenoxy)methyl)pyrrolidin-1-yl)ethyl)benzonitrile], the EC50 at APOL1 G2 [1] was determined as 1680 nM. Further, the AC50 on APOL1 G2 [2] was determined as 620 nM.

Take `CC1CC(COc2ccc(S(C)(=O)=O)cc2)CN1CCc1cc(Cl)cc(C#N)c1` (single isomer, unassigned) [Compound 202, rac-trans or cis-3-chloro-5-{2-[4-[(4-methanesulfonylphenoxy)methyl]-2-methylpyrrolidin-1-yl]ethyl}benzonitrile]: at APOL1 G2 [1], the EC50 worked out at 89 nM. The AC50 on APOL1 G2 [2] was 860 nM.

Consider `CC1CC(COc2ccc(S(C)(=O)=O)cc2)CN1CCc1cc(Cl)cc(C#N)c1` (single isomer, unassigned) [Compound 203, 3-chloro-5-(2-((2R,4S or 2S,4R or 2R,4R or 2S,4S)-2-methyl-4-((4-(methylsulfonyl)phenoxy)methyl)pyrrolidin-1-yl)ethyl)benzonitrile], for which the EC50 on APOL1 G2 [1] came to 3540 nM. The half-maximal activity concentration (AC50) at APOL1 G2 [2] came out at 9300 nM.

For the molecule `CC1CC(COc2ccc(S(C)(=O)=O)cc2)CN1CCc1cc(Cl)cc(C#N)c1` (single isomer, unassigned) [Compound 204, 3-chloro-5-(2-((2R,4S or 2S,4R or 2S,4S or 2R.4R)-2-methyl-4-((4-(methylsulfonyl)phenoxy)methyl)pyrrolidin-1-yl)ethyl)benzonitrile], at APOL1 G2 [1], the EC50 is 42.3 nM. Further, the half-maximal activity concentration (AC50) on APOL1 G2 [2] stood at 456 nM.
